# Measured values taken from US10189873B2, “Compositions and methods for inhibiting “stimulator of interferon gene”-dependent signalling” (ADURO BIOTECH, INC., priority 2013, dated 2019).
# Target: T1, human STING (Homo sapiens, UniProt Q86WV6, G230A/H232R/R293Q/R71H)
# T1 construct: THP1-Blue™ ISG cells (a human monocyte cell line transfected with an IRF-inducible secreted embryonic alkaline phosphatase reporter gene); host or cells: THP1-Blue ISG cells (human monocyte cell line)
# Assay: Inhibition of ML RR-CDA-mediated induction of type I IFN in THP1-Blue ISG reporter cells (QUANTI-Blue, A655)
# Assay type: cell-based
# Description: To evaluate if the antagonist 2′-O-propargyl-cyclic-[A(2′,5′)pA(3′,5′)p] (ML-propargyl-CDA) can inhibit STING-dependent induction of type I interferon induction by Rp, Rp dithio cyclic [A(2′,5′)pA(3′,5′)p] (ML RR-CDA) in human cells, 4×10^5 THP1-Blue™ ISG cells (a human monocyte cell line transfected with an IRF-inducible secreted embryonic alkaline phosphatase reporter gene (Invivogen) which express alkaline phosphatase under the control of a promoter comprised of five IFN-stimulated response elements) were incubated with 50 μM of Rp, Rp dithio cyclic [A(2′,5′)pA(3′,5′)p] (ML RR-CDA), 10 μM or 50 μM of the antagonist 2′-O-propargyl-cyclic-[A(2′,5′)pA(3′,5′)p] (ML-propargyl-CDA), both 50 μM Rp, Rp dithio cyclic [A(2′,5′)pA(3′,5′)p] (ML RR-CDA) and 10 μM or 50 μM 2′-O-propargyl-cyclic-[A(2′,5′)pA(3′,5′)p] (ML-propargyl-CDA), or 50 μM Rp, Rp dithio cyclic [A(2′,5′)pA(3′,5′)p] (ML RR-CDA) after a 30 min pre-incubation with 10 μM 2′-O-propargyl-cyclic-[A(2′,5′)pA(3′,5′)p] (ML-propargyl-CDA). After 30 minutes, cells were washed and plated in 96-well dish in RPMI media containing 10% FBS, and incubated at 37° C. with 5% CO2. Cell culture supernatants from each sample were collected after 16 hr incubation, and 20 μL of the cell culture supernatants was added to 180 μL QUANTI-Blue reagent (Invivogen) and incubated for 5 minutes to evaluate type I interferon protein levels. Readings at Absorbance 655 nm were measured with a Versa Max kinetic spectrophotometer ([…]).
# T1 sequence (Q86WV6 whole entry R71H/G230A/H232R/R293Q): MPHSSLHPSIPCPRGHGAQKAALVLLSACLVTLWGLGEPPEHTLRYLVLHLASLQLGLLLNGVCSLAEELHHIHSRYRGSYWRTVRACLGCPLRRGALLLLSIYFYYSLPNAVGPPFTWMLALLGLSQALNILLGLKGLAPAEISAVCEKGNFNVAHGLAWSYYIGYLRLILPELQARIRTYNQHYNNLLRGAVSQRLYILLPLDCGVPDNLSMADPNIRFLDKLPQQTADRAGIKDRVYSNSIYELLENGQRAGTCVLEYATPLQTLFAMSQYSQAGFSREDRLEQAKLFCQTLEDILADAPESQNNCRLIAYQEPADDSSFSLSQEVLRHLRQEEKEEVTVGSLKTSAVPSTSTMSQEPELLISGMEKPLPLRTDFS
compound,measurement,setting,value
"C#CCO[C@@H]1[C@@H]2OP(=O)(O)OC[C@H]3O[C@@H](n4cnc5c(N)ncnc54)[C@H](OP(=O)(O)OC[C@H]2O[C@H]1n1cnc2c(N)ncnc21)[C@@H]3O [ML-propargyl-CDA, 2′-O-propargyl-cyclic-A(2′,5′)pA(3′,5′)p]",inhibition of induction of type I IFN by ML RR-CDA,"THP1-Blue ISG cells, 10 μM or 50 μM antagonist added simultaneously with 50 μM ML RR-CDA, FIG. 7A",significantly inhibited
same,inhibition of induction of type I interferon by ML RR-CDA,"THP1-Blue ISG cells, 30 min pre-incubation with 10 μM antagonist, then 50 μM ML RR-CDA, FIG. 7B",inhibits
same,functional character at human STING,concluded from reduction of ML RR-CDA-induced type I IFN production in THP1-Blue ISG cells,antagonist of human STING
